Target: T1, full length AKT E17K (Homo sapiens, UniProt P31749, E17K)
T1 construct: host or cells: HEK-293 (ATCC CRL-1573)
Experiment: NanoBRET Target Engagement (TE) Assay
Assay type: cell-based
Settings: competitive displacement of tracer in cells, read-out: AKT1 E17K IC50
In short: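 Compound and tracer incubated 2 h before luminescence at donor 450 nm and acceptor 600 nm, with extracellular signal inhibited. EC50 by sigmoidal variable-slope regression.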

T1 sequence (P31749 whole entry E17K): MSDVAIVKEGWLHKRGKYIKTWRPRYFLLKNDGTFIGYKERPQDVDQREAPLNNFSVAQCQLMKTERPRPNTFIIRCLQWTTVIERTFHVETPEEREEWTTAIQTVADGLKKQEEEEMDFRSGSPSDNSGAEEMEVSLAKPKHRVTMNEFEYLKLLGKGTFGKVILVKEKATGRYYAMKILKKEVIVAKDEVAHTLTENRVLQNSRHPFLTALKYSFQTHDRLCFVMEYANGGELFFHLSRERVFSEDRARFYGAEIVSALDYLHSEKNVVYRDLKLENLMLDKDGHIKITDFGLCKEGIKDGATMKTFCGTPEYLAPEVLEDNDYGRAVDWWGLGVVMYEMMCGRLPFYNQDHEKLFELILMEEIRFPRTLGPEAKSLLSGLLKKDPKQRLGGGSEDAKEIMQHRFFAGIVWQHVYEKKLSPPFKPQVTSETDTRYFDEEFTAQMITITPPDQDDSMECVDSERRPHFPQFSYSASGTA

## N#Cc1nccc(NC2CCN(Cc3ccc(-n4c(-c5cccnc5N)nc5ccc(N6CCOCC6=O)nc54)cc3)CC2)n1 [Example 387, 4-((1-(4-(2-(2-Aminopyridin-3-yl)-5-(3-oxomorpholino)-3H-imidazo[4,5-b]pyridin-3-yl)benzyl)piperidin-4-yl)amino)pyrimidine-2-carbonitrile]
  IC50: 0.06 to 0.6 µM

## N#Cc1nccc(NC2CCN(Cc3ccc(-n4c(-c5cccnc5N)nc5ccc(C6CCCC6)nc54)cc3)CC2)n1 [Example 388, 4-((1-(4-(2-(2-Aminopyridin-3-yl)-5-cyclopentyl-3H-imidazo[4,5-b]pyridin-3-yl)benzyl)piperidin-4-yl)amino)pyrimidine-2-carbonitrile]
  IC50: < 0.015 µM

## CN(C)c1ccc2nc(-c3cccnc3N)n(-c3ccc(CN4CCC(Nc5ccnc(C#N)n5)CC4)cc3)c2n1 [Example 389, 4-((1-(4-(2-(2-Aminopyridin-3-yl)-5-(dimethylamino)-3H-imidazo[4,5-b]pyridin-3-yl)benzyl)piperidin-4-yl)amino)pyrimidine-2-carbonitrile]
  IC50: < 0.015 µM

## CN(c1ccnc(C#N)n1)C1CCN(Cc2ccc(-n3c(-c4cccnc4N)nc4cccnc43)cc2)CC1 [Example 390, 4-((1-(4-(2-(2-Aminopyridin-3-yl)-3H-imidazo[4,5-b]pyridin-3-yl)benzyl)piperidin-4-yl)(methyl)amino)pyrimidine-2-carbonitrile]
  IC50: < 0.015 µM

## N#Cc1ncnc(NC2CCN(Cc3ccc(-n4c(-c5cccnc5N)nc5ccc(-c6ccccc6)nc54)cc3)CC2)n1 [Example 391, 4-((1-(4-(2-(2-Aminopyridin-3-yl)-5-phenyl-3H-imidazo[4,5-b]pyridin-3-yl)benzyl)piperidin-4-yl)amino)-1,3,5-triazine-2-carbonitrile]
  IC50: < 0.015 µM

## CC1(Nc2ccnc(C#N)n2)CCN(Cc2ccc(-n3c(-c4cccnc4N)nc4cccnc43)cc2)CC1 [Example 392, 4-((1-(4-(2-(2-Aminopyridin-3-yl)-3H-imidazo[4,5-b]pyridin-3-yl)benzyl)-4-methylpiperidin-4-yl)amino)pyrimidine-2-carbonitrile]
  IC50: 0.06 to 0.6 µM

## Cn1c(-c2ccc3nc(-c4cccnc4N)n(-c4ccc(CN5CCC(Nc6ccnc(C#N)n6)CC5)cc4)c3n2)cccc1=O [Example 393, 4-((1-(4-(2-(2-Aminopyridin-3-yl)-5-(1-methyl-6-oxo-1,6-dihydropyridin-2-yl)-3H-imidazo[4,5-b]pyridin-3-yl)benzyl)piperidin-4-yl)amino)pyrimidine-2-carbonitrile]
  IC50: 0.6 to 10 µM

## Cn1c(-c2ccc3nc(-c4cccnc4N)n(-c4ccc(CN5CCN(c6ccnc(C#N)n6)CC5)cc4)c3n2)cccc1=O [Example 394, 4-(4-(4-(2-(2-Aminopyridin-3-yl)-5-(1-methyl-6-oxo-1,6-dihydropyridin-2-yl)-3H-imidazo[4,5-b]pyridin-3-yl)benzyl)piperazin-1-yl)pyrimidine-2-carbonitrile]
  IC50: 0.6 to 10 µM

## COc1cccc(-c2ccc3nc(-c4cccnc4N)n(-c4ccc(CN5CCC(Nc6ccnc(C#N)n6)CC5)cc4)c3n2)c1 [Example 395, 4-((1-(4-(2-(2-Aminopyridin-3-yl)-5-(3-methoxyphenyl)-3H-imidazo[4,5-b]pyridin-3-yl)benzyl)piperidin-4-yl)amino)pyrimidine-2-carbonitrile]
  IC50: < 0.015 µM

## CC(C)(C)c1ccc2nc(-c3cccnc3N)n(-c3ccc(CN4CCC(Nc5ccnc(C#N)n5)CC4)cc3)c2n1 [Example 396, 4-((1-(4-(2-(2-Aminopyridin-3-yl)-5-(tert-butyl)-3H-imidazo[4,5-b]pyridin-3-yl)benzyl)piperidin-4-yl)amino)pyrimidine-2-carbonitrile]
  IC50: 0.015 to 0.06 µM

## CCc1ccc2nc(-c3cccnc3N)n(-c3ccc(CN4CCC(Nc5ccnc(C#N)n5)CC4)cc3)c2n1 [Example 397, 4-((1-(4-(2-(2-Aminopyridin-3-yl)-5-ethyl-3H-imidazo[4,5-b]pyridin-3-yl)benzyl)piperidin-4-yl)amino)pyrimidine-2-carbonitrile]
  IC50: < 0.015 µM

## CNC(=O)c1ccc2nc(-c3cccnc3N)n(-c3ccc(CN4CCC(Nc5ccnc(C#N)n5)CC4)cc3)c2n1 [Example 398, 2-(2-Aminopyridin-3-yl)-3-(4-((4-((2-cyanopyrimidin-4-yl)amino)piperidin-1-yl)methyl)phenyl)-N-methyl-3H-imidazo[4,5-h]pyridine-5-carboxamide]
  IC50: < 0.015 µM

## N#Cc1nccc(N2CCN(Cc3ccc(-n4c(-c5cccnc5N)nc5ccc(-c6ccncc6C#N)nc54)cc3)CC2)n1 [Example 399, 4-(4-(4-(2-(2-Aminopyridin-3-yl)-5-(3-cyanopyridin-4-yl)-3H-imidazo[4,5-b]pyridin-3-yl)benzyl)piperazin-1-yl)pyrimidine-2-carbonitrile]
  IC50: 0.015 to 0.06 µM

## N#Cc1nccc(NC2CCN(Cc3ccc(-n4c(-c5cccnc5N)nc5ccc(-c6ccncc6C#N)nc54)cc3)CC2)n1 [Example 400, 4-((1-(4-(2-(2-Aminopyridin-3-yl)-5-(3-cyanopyridin-4-yl)-3H-imidazo[4,5-b]pyridin-3-yl)benzyl)piperidin-4-yl)amino)pyrimidine-2-carbonitrile]
  IC50: < 0.015 µM

## N#Cc1nccc(NC2CCN(Cc3ccc(-n4c(-c5cccnc5N)nc5ccc(F)nc54)cc3)CC2)n1 [Example 401, 4-((1-(4-(2-(2-Aminopyridin-3-yl)-5-fluoro-3H-imidazo[4,5-b]pyridin-3-yl)benzyl)piperidin-4-yl)amino)pyrimidine-2-carbonitrile]
  IC50: 0.015 to 0.06 µM

## N#Cc1nccc(NC2CCN(Cc3ccc(-n4c(-c5cccnc5N)nc5cc(F)cnc54)cc3)CC2)n1 [Example 402, 4-((1-(4-(2-(2-Aminopyridin-3-yl)-6-fluoro-3H-imidazo[4,5-b]pyridin-3-yl)benzyl)piperidin-4-yl)amino)pyrimidine-2-carbonitrile]
  IC50: < 0.015 µM

## N#Cc1nccc(NC2CCN(Cc3ccc(-n4c(-c5cccnc5N)nc5ccc(N6CCOC6=O)nc54)cc3)CC2)n1 [Example 403, 4-((1-(4-(2-(2-Aminopyridin-3-yl)-5-(2-oxooxazolidin-3-yl)-3H-imidazo[4,5-b]pyridin-3-yl)benzyl)piperidin-4-yl)amino)pyrimidine-2-carbonitrile]
  IC50: < 0.015 µM

## N#Cc1nccc(NC2CCN(Cc3ccc(-n4c(-c5cccnc5N)nc5ccc(-c6ccc(F)nc6)nc54)cc3)CC2)n1 [Example 404, 4-((1-(4-(2-(2-Aminopyridin-3-yl)-5-(6-fluoropyridin-3-yl)-3H-imidazo[4,5-b]pyridin-3-yl)benzyl)piperidin-4-yl)amino)pyrimidine-2-carbonitrile]
  IC50: < 0.015 µM

## N#Cc1nccc(NC2CCN(Cc3ccc(-n4c(-c5cccnc5N)nc5ccc(Cl)nc54)cc3)CC2)n1 [Example 405, 4-((1-(4-(2-(2-Aminopyridin-3-yl)-5-chloro-3H-imidazo[4,5-b]pyridin-3-yl)benzyl)piperidin-4-yl)amino)pyrimidine-2-carbonitrile]
  IC50: < 0.015 µM

## N#Cc1ccc2nc(-c3cccnc3N)n(-c3ccc(CN4CCC(Nc5ccnc(C#N)n5)CC4)cc3)c2n1 [Example 406, 2-(2-Aminopyridin-3-yl)-3-(4-((4-((2-cyanopyrimidin-4-yl)amino)piperidin-1-yl)methyl)phenyl)-3H-imidazo[4,5-b]pyridine-5-carbonitrile]
  IC50: < 0.015 µM

## N#Cc1nccc(N2CCN(Cc3ccc(-n4c(-c5cccnc5N)nc5ccc(-c6ncccc6C#N)nc54)cc3)CC2)n1 [Example 407, 4-(4-(4-(2-(2-Aminopyridin-3-yl)-5-(3-cyanopyridin-2-yl)-3H-imidazo[4,5-b]pyridin-3-yl)benzyl)piperazin-1-yl)pyrimidine-2-carbonitrile]
  IC50: < 0.015 µM

## N#Cc1nccc(NC2CCN(Cc3ccc(-n4c(-c5cccnc5N)nc5ccc(-c6ncccc6C#N)nc54)cc3)CC2)n1 [Example 408, 4-((1-(4-(2-(2-Aminopyridin-3-yl)-5-(3-cyanopyridin-2-yl)-3H-imidazo[4,5-b]pyridin-3-yl)benzyl)piperidin-4-yl)amino)pyrimidine-2-carbonitrile]
  IC50: < 0.015 µM

## N#Cc1nccc(NC2CCN(Cc3ccc(-n4c(-c5cccnc5N)nc5ccc(-c6cccnc6C#N)nc54)cc3)CC2)n1 [Example 409, 4-((1-(4-(2-(2-Aminopyridin-3-yl)-5-(2-cyanopyridin-3-yl)-3H-imidazo[4,5-b]pyridin-3-yl)benzyl)piperidin-4-yl)amino)pyrimidine-2-carbonitrile]
  IC50: < 0.015 µM

## N#Cc1nccc(NC2CCN(Cc3ccc(-n4c(-c5cccnc5N)nc5ccc(C(F)(F)F)nc54)cc3)CC2)n1 [Example 410, 4-((1-(4-(2-(2-Aminopyridin-3-yl)-5-(trifluoromethyl)-3H-imidazo[4,5-b]pyridin-3-yl)benzyl)piperidin-4-yl)amino)pyrimidine-2-carbonitrile]
  IC50: < 0.015 µM

## N#Cc1cnc2c(c1)nc(-c1cccnc1N)n2-c1ccc(CN2CCC(Nc3ccnc(C#N)n3)CC2)cc1 [Example 411, 2-(2-Aminopyridin-3-yl)-3-(4-((4-((2-cyanopyrimidin-4-yl)amino)piperidin-1-yl)methyl)phenyl)-3H-imidazo[4,5-b]pyridine-6-carbonitrile]
  IC50: 0.015 to 0.06 µM

## Cc1cc2nc(-c3cccnc3N)n(-c3ccc(CN4CCC(Nc5ccnc(C#N)n5)CC4)cc3)c2nc1C [Example 412, 4-((1-(4-(2-(2-Aminopyridin-3-yl)-5,6-dimethyl-3H-imidazo[4,5-b]pyridin-3-yl)benzyl)piperidin-4-yl)amino)pyrimidine-2-carbonitrile]
  IC50: < 0.015 µM

## N#Cc1nccc(NC2CCN(Cc3ccc(-n4c(-c5cccnc5N)nc5nccnc54)cc3)CC2)n1 [Example 413, 4-((1-(4-(2-(2-aminopyridin-3-yl)-1H-imidazo[4,5-b]pyrazin-1-yl)benzyl)piperidin-4-yl)amino)pyrimidine-2-carbonitrile]
  IC50: 0.015 to 0.06 µM

## COC(=O)c1ccc2nc(-c3cccnc3N)n(-c3ccc(CN4CCC(Nc5ccnc(C#N)n5)CC4)cc3)c2n1 [Example 414, Methyl 2-(2-aminopyridin-3-yl)-3-(4-((4-((2-cyanopyrimidin-4-yl)amino)piperidin-1-yl)methyl)phenyl)-3H-imidazo[4,5-b]pyridine-5-carboxylate]
  IC50: < 0.015 µM
